# Measured values: ChEMBL document CHEMBL1201862, “PubChem BioAssay data set” (2004)
# Counter-ions that a name gives are not always drawn.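 Test compounds were applied to cells in 96-well plates for 48 hours at 5 doses. GI50 is the concentration that inhibits growth by half.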 The source made the active and inactive calls. No stated cut-off is given here; in the data, active = GI50 up to about 1.1 µM and inactive = higher. Where a SMILES comes first, the peptide text is derived from it. The star is where a group is joined. Boc = CC(C)(C)OC(=O)*
# Legend:
# Assay in all cases: NCI tumour cell line growth inhibition, 48 h
# KM-20L2 = tested on: KM-20L2
# XF498 = tested on: XF498
# DMS-114 = tested on: DMS-114
# LXFL 529 = tested on: LXFL 529
# RXF 631 = tested on: RXF 631
# T47D = tested on: T47D
# M19-MEL = tested on: M19-MEL
# SNB-78 = tested on: SNB-78
# HOP-18 = tested on: HOP-18
SMILES,GI50 (KM-20L2),GI50 (XF498),GI50 (DMS-114),GI50 (LXFL 529),GI50 (RXF 631),GI50 (T47D),GI50 (M19-MEL),GI50 (SNB-78),GI50 (HOP-18)
COc1ccc(OC)c2c(=S)c3ccccc3[nH]c12,> 100 µM (inactive),> 100 µM (inactive),32 µM (inactive),56 µM (inactive),41.5 µM (inactive),> 100 µM (inactive),> 100 µM (inactive),,
Cc1nc(N)nc(N)c1CCCc1ccccc1,7.31 µM (inactive),35.7 µM (inactive),4.48 µM (inactive),8.05 µM (inactive),,,9.95 µM (inactive),32.1 µM (inactive),
Cc1ccc(NC(=O)CCC(=O)C(C#N)c2ccccc2)cc1C (stereo not given),> 100 µM (inactive),> 100 µM (inactive),> 100 µM (inactive),> 100 µM (inactive),> 100 µM (inactive),,,> 100 µM (inactive),> 100 µM (inactive)
Cc1cc(C)c2c(c1)CSCc1cc(C)cc(C)c1-2,35.1 µM (inactive),,25.2 µM (inactive),57.5 µM (inactive),,,25.1 µM (inactive),25.1 µM (inactive),37.6 µM (inactive)
C#CC1(O)CC(c2ccccc2)N(C)C(c2ccccc2)C1 (stereo not given),> 100 µM (inactive),,> 100 µM (inactive),> 100 µM (inactive),> 100 µM (inactive),,> 100 µM (inactive),> 100 µM (inactive),
Cc1cc2c(cc1C)[n+]([O-])c(C(=O)/C=C/c1ccccc1Cl)c(C)[n+]2[O-],35.2 µM (inactive),18.5 µM (inactive),21.8 µM (inactive),18.2 µM (inactive),24.7 µM (inactive),,36 µM (inactive),33.7 µM (inactive),29.3 µM (inactive)
O=C(CCN1CCN(c2cccc(Cl)c2)CC1)N1CCc2c([nH]c3ccccc23)C1c1cccnc1 (stereo not given),5.52 µM (inactive),3.27 µM (inactive),6.65 µM (inactive),4.19 µM (inactive),2.59 µM (inactive),,13.3 µM (inactive),3.72 µM (inactive),12.8 µM (inactive)
Nc1c(Cl)ncnc1NCCCNc1ncnc(Cl)c1N,> 100 µM (inactive),> 100 µM (inactive),> 100 µM (inactive),> 100 µM (inactive),,,> 100 µM (inactive),> 100 µM (inactive),> 100 µM (inactive)
O=C(N/C(=C\c1ccc([N+](=O)[O-])cc1)c1nc2ccccc2[nH]1)c1ccccc1,> 100 µM (inactive),,> 100 µM (inactive),39.4 µM (inactive),43.7 µM (inactive),,> 100 µM (inactive),> 100 µM (inactive),> 100 µM (inactive)
O=S1(=O)OCCOS(=O)(=O)C1Br,,,> 100 µM (inactive),> 100 µM (inactive),> 100 µM (inactive),,> 100 µM (inactive),> 100 µM (inactive),
COc1cccc(NC(=O)/C(CS(=O)(=O)CCC(C(C)=O)C(C)=O)=N/NC(C)(C)C)c1,> 100 µM (inactive),,> 100 µM (inactive),> 100 µM (inactive),,,,> 100 µM (inactive),42.9 µM (inactive)
COc1ccc(OC)c(/C=C(/C#N)c2ccccc2)c1,16.6 µM (inactive),,,34.3 µM (inactive),,,22.2 µM (inactive),,> 100 µM (inactive)
N#CCCN(CCC#N)C(=O)c1cccc(C(=O)N(CCC#N)CCC#N)c1,> 42.8 µM (inactive),> 100 µM (inactive),> 100 µM (inactive),14.1 µM (inactive),,,> 100 µM (inactive),> 100 µM (inactive),
NC(=S)Nc1nnc(-c2ccc(-c3nnc(NC(N)=S)o3)cc2)o1,> 100 µM (inactive),,> 100 µM (inactive),> 100 µM (inactive),,,> 100 µM (inactive),> 100 µM (inactive),> 100 µM (inactive)
COc1cc(C2C(Cl)C(=O)N2n2cnc3ccccc3c2=O)cc(OC)c1OC (stereo not given),64.3 µM (inactive),> 100 µM (inactive),43.4 µM (inactive),> 100 µM (inactive),,,> 100 µM (inactive),> 100 µM (inactive),> 100 µM (inactive)
OC(CCNC12CC3CC(CC(C3)C1)C2)c1ccccc1 (stereo not given),49.3 µM (inactive),> 100 µM (inactive),57.9 µM (inactive),> 100 µM (inactive),> 100 µM (inactive),,> 100 µM (inactive),> 100 µM (inactive),> 100 µM (inactive)
C#CC[C@]12CC(=O)CC[C@H]1CC1(C2)OCCO1,> 100 µM (inactive),,> 100 µM (inactive),> 100 µM (inactive),> 100 µM (inactive),,> 100 µM (inactive),> 100 µM (inactive),> 100 µM (inactive)

SMILES,GI50 (KM-20L2),GI50 (XF498),GI50 (DMS-114),GI50 (LXFL 529),GI50 (RXF 631),GI50 (T47D),GI50 (M19-MEL),GI50 (SNB-78),GI50 (HOP-18)
COC(=O)[C@]12CC=C3O[C@@H]4OC5(CCCCC5)O[C@@H]4[C@H]3C1C(=O)C=CC2=O (stereo not given in full),19.7 µM (inactive),12.6 µM (inactive),17.5 µM (inactive),9.84 µM (inactive),,17.1 µM (inactive),16 µM (inactive),18.8 µM (inactive),18.5 µM (inactive)
Cc1c2cc[n+](C)cc2c(C)c2c1sc1ccccc12,2.04 µM (inactive),0.564 µM (active),0.395 µM (active),0.456 µM (active),0.194 µM (active),0.798 µM (active),1.1 µM (active),0.855 µM (active),9.14 µM (inactive)
CN1C(=O)CCC1(O)C1C=CC=CC1 (stereo not given),> 100 µM (inactive),> 100 µM (inactive),> 100 µM (inactive),> 100 µM (inactive),> 100 µM (inactive),,> 100 µM (inactive),> 100 µM (inactive),
CC(=O)Nc1ccc(-c2nnc(SCC(=O)Nc3cccc([N+](=O)[O-])c3)o2)cc1,17.8 µM (inactive),,10.2 µM (inactive),2.99 µM (inactive),,,15.1 µM (inactive),18 µM (inactive),21.1 µM (inactive)
CCCCCCCC(=O)OC[C@H](C[As](=O)(O)O)OC(=O)CCCCCCC,16.6 µM (inactive),,6.84 µM (inactive),9.55 µM (inactive),,,13.3 µM (inactive),14 µM (inactive),22 µM (inactive)
Cc1ccc(S(=O)(=O)OC2CSSCC2OS(=O)(=O)c2ccc(C)cc2)cc1 (stereo not given),14 µM (inactive),,11.9 µM (inactive),11.4 µM (inactive),13.6 µM (inactive),,13.4 µM (inactive),20 µM (inactive),17.4 µM (inactive)
N=C(N)SCCc1cn2ccccc2n1,,> 100 µM (inactive),> 100 µM (inactive),,,,> 100 µM (inactive),> 100 µM (inactive),> 100 µM (inactive)
c1ccc2c(c1)[nH]c1c2nc2ncccn21,> 100 µM (inactive),> 100 µM (inactive),> 100 µM (inactive),> 100 µM (inactive),> 100 µM (inactive),,> 100 µM (inactive),> 100 µM (inactive),
COc1cc2c(cc1OC)C(N(C)C)C(c1ccccc1)=C2Cl (stereo not given),25 µM (inactive),,,,15.7 µM (inactive),,18.5 µM (inactive),,28.5 µM (inactive)
COC(=O)CCC1(NS(=O)(=O)c2ccc(C)cc2)CCC(C(C)(C)C)CC1 (stereo not given),,14.8 µM (inactive),4.58 µM (inactive),15 µM (inactive),15.9 µM (inactive),,11.4 µM (inactive),21.3 µM (inactive),
COC(=O)C1[C@H](c2ccc3c(c2)OCO3)OC(=O)[C@]1(C(=O)OC)C(=O)c1ccc(OC)c(OC)c1 (stereo not given in full),56 µM (inactive),81.8 µM (inactive),,41.5 µM (inactive),,,51.6 µM (inactive),56.8 µM (inactive),> 100 µM (inactive)
CC(C)C1CC(O)O[C@@H]([C@@H](C)[C@H]2CC(=O)[C@@H]3[C@@H]4[C@@H](O)[C@H](O)[C@H]5[C@@H](O)[C@H](O)CC[C@]5(C)[C@H]4CC[C@]23C)C1 (stereo not given in full),> 100 µM (inactive),18.9 µM (inactive),,> 100 µM (inactive),,,37.1 µM (inactive),38.9 µM (inactive),
COC(=O)C(Cc1c[nH]c2ccccc12)NC(=O)C(Cc1c[nH]c2ccccc12)NC(=O)C(Cc1c[nH]c2ccccc12)NC(=O)C(Cc1c[nH]c2ccccc12)NC(=O)C(Cc1c[nH]c2ccccc12)NC(=O)C(Cc1c[nH]c2ccccc12)NC(=O)C(Cc1c[nH]c2ccccc12)NC(=O)OC(C)(C)C (stereo not given) (Boc-WWWWWWW-OMe; configuration not given here),,,,,,> 100 µM (inactive),,,
COc1cc2oc(-c3ccc(O)cc3O)c(CC=C(C)C)c(=O)c2c(O)c1/C=C/C(C)C [ARTOCARPIN],,,,,,7.1 µM (inactive),,,
C[C@@H](Oc1ccc(Oc2cnc3ccc(Cl)cc3n2)cc1)C(=O)O [R(+)XK469],,,,,,> 100 µM (inactive),,,
CN(C)CCOc1ccc(/C(=C(/CCCl)c2ccccc2)c2ccccc2)cc1 [TOREMIFENE CITRATE],,,,,,11.6 µM (inactive),,,
